Reference: US6515001B2, “IL-8 receptor ligands-drugs for inflammatory and autoimmune diseases” (Chemokine Therapeutic Corporation, priority 2001, dated 2003)

How the values were obtained:
[1] = test system: IL-8-induced [Ca2+]i mobilization in THP1 cells; assay: Inhibition of IL-8-induced intracellular [Ca2+]i mobilization in THP1 cells; type: cell-based; settings: Homo sapiens, THP-1; Fura-2,AM loaded THP1 cells, incubated 60 min prior to induction by 12 nM IL-8
Method: A rapid, transient rise in the free cytosolic Ca^2+ concentration ([Ca^2+])i) is one of the events associated with the Chemokine mediated induction of the associated receptors and is assumed to be involved in many of the subsequent cellular reactions. Both Ca^2+ release from intracellular stores and Ca^2+ influx from the extracellular space contribute to the rise in [Ca^2+]i. […] Fura-2,AM loaded THP1 cells were incubated with CTCM192 for 60 min prior to induction of [Ca^2+]i mobilization by 12 nM IL-8. Results illustrate the effect of CTCM192 (1) on IL-8-induced Ca^2+ mobilization.
In accordance with this aspect of the invention, the benzopyrone derivative, Geetokine, such as compound 1 or corresponding salts may be used for the treatment of a wide range of inflammatory diseases such as gout, arthritis osteoarthritis, rheumatoid arthritis, and ARDS.

[2] = target: IL-8 receptors (CXCR-1 and CXCR-2); assay: Inhibition of binding of I125 labeled IL-8 to IL-8 receptors; settings: I125 labeled IL-8 as competitor; read-out: IC50, inhibition of binding of IL-8 to CXCR-1 and/or CXCR-2
Method: This example discloses the ability of compounds of the invention, such as benzopyrone derivatives, such as CTCM192 (1), to inhibit binding of IL-8 to IL-8 receptors (CXCR-1 and CXCR-2). The binding studies were conducted using I^125 labeled IL-8 as competitor.

Q: With `Cc1csc(-c2coc3cc(OC(=O)C(Cc4ccccc4)NC(=O)OCc4ccccc4)cc(C)c3c2=O)n1` (centres unmarked) [Compound 1, [7-[5-methylbenzopyrone-5′(3′-methyl)-thiazole]-phenylalanine-benyl ester]] as the molecule, how does the IC50 [1] read?
A: 0.34 µM

Q: What about the IC50 [2] of the same molecule?
A: 45 µM
